In ChEMBL document CHEMBL1201862, “PubChem BioAssay data set” (2004):
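Five compound concentrations were applied to cells in 96-well plates for 48 hours; endpoints were derived by simple linear interpolation of the resulting dose-response curve. GI50: concentration for 50% inhibition of growth.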 Calls of active or inactive are those of the source. No stated cut-off is given here; in the data, active = GI50 up to about 1.1 µM and inactive = higher.

Legend:
Experiment in all cases: inhibition of tumour cell growth, NCI panel, 48 h
[1] = tested on: CAKI-1
[2] = tested on: NCI-H522
[3] = tested on: SNB-75
[4] = tested on: MDA-MB-435
[5] = tested on: COLO 205
[6] = tested on: SF-295
[7] = tested on: MCF7
[8] = tested on: RXF 393
[9] = tested on: NCI/ADR-RES
[10] = tested on: IGROV-1
[11] = tested on: UACC-257
[12] = tested on: T47D
[13] = tested on: CCRF-CEM
[14] = tested on: SN12C
[15] = tested on: HT-29
[16] = tested on: HOP-92
[17] = tested on: Hs-578T
[18] = tested on: BT-549

SMILES	GI50 [1]	GI50 [2]	GI50 [3]	GI50 [4]	GI50 [5]	GI50 [6]	GI50 [7]	GI50 [8]	GI50 [9]	GI50 [10]	GI50 [11]	GI50 [12]	GI50 [13]	GI50 [14]	GI50 [15]	GI50 [16]	GI50 [17]	GI50 [18]
O=c1c2ccccc2n2c(S)nnc2n1-c1ccccc1	> 100 µM (inactive)	> 100 µM (inactive)	21.1 µM (inactive)	> 100 µM (inactive)	> 100 µM (inactive)	> 100 µM (inactive)	> 100 µM (inactive)	> 100 µM (inactive)	> 100 µM (inactive)	> 100 µM (inactive)	> 100 µM (inactive)	> 100 µM (inactive)	> 100 µM (inactive)	> 100 µM (inactive)	> 100 µM (inactive)	–	–	–
O=[N+]([O-])c1ccc2c(c1)OCCOCCOc1ccc([N+](=O)[O-])cc1OCCOCCO2	> 100 µM (inactive)	> 100 µM (inactive)	> 100 µM (inactive)	–	> 100 µM (inactive)	> 100 µM (inactive)	–	> 100 µM (inactive)	–	> 100 µM (inactive)	> 100 µM (inactive)	–	> 100 µM (inactive)	> 100 µM (inactive)	> 100 µM (inactive)	–	–	–
CC1(C)O[C@@H](CBr)C[C@H](C[C@H]2C[C@@H](O)C[C@@H](CCOCc3ccccc3)O2)O1	27.8 µM (inactive)	16.4 µM (inactive)	20.5 µM (inactive)	23.5 µM (inactive)	17 µM (inactive)	17 µM (inactive)	20 µM (inactive)	–	18.7 µM (inactive)	19.8 µM (inactive)	19 µM (inactive)	14.9 µM (inactive)	47.3 µM (inactive)	30.4 µM (inactive)	–	25.5 µM (inactive)	25.6 µM (inactive)	–
CC(=O)Nc1cc(C(=O)Nc2cc(C(=O)Nc3cc(C(=O)Nc4cc(C(=O)Nc5cc(C(=O)NCCC(=O)NCCCN(C)C)n(C)c5)n(C)c4)n(C)c3)n(C)c2)n(C)c1	19.5 µM (inactive)	17.9 µM (inactive)	> 100 µM (inactive)	36.8 µM (inactive)	46.8 µM (inactive)	> 100 µM (inactive)	28.2 µM (inactive)	> 100 µM (inactive)	> 100 µM (inactive)	> 100 µM (inactive)	76.2 µM (inactive)	31.5 µM (inactive)	27.8 µM (inactive)	> 100 µM (inactive)	> 100 µM (inactive)	33.5 µM (inactive)	34.2 µM (inactive)	–
O=C1NC(=S)N/C1=C/c1c(-c2ccccc2)[nH]c2ccccc12	18.2 µM (inactive)	13.2 µM (inactive)	15.3 µM (inactive)	13.7 µM (inactive)	17.9 µM (inactive)	12.8 µM (inactive)	15.2 µM (inactive)	15.3 µM (inactive)	18.6 µM (inactive)	13.8 µM (inactive)	15.6 µM (inactive)	–	–	18.5 µM (inactive)	16.3 µM (inactive)	–	16.6 µM (inactive)	12.6 µM (inactive)
CC(C)(C)C(=O)C(CC(=O)c1ccccc1)C(=O)C(C)(C)C	> 100 µM (inactive)	> 100 µM (inactive)	15.3 µM (inactive)	> 100 µM (inactive)	> 100 µM (inactive)	> 100 µM (inactive)	> 100 µM (inactive)	–	> 100 µM (inactive)	> 100 µM (inactive)	> 100 µM (inactive)	> 100 µM (inactive)	> 100 µM (inactive)	> 100 µM (inactive)	> 100 µM (inactive)	44.7 µM (inactive)	77.3 µM (inactive)	–
COC(=O)C1=CC2C(=O)c3ccccc3C1(c1ccccc1)N2C1CCCCC1 (centres undefined)	20.5 µM (inactive)	27.9 µM (inactive)	35.1 µM (inactive)	16.9 µM (inactive)	13.1 µM (inactive)	16 µM (inactive)	15.6 µM (inactive)	7.87 µM (inactive)	27.9 µM (inactive)	20.1 µM (inactive)	12.4 µM (inactive)	–	15.1 µM (inactive)	24 µM (inactive)	14.8 µM (inactive)	22.6 µM (inactive)	–	22.6 µM (inactive)
O/N=C(/C(Cl)=C(Cl)Cl)C(Cl)Cl	33.6 µM (inactive)	–	19 µM (inactive)	18.2 µM (inactive)	20.7 µM (inactive)	19.2 µM (inactive)	25.6 µM (inactive)	16.3 µM (inactive)	32.2 µM (inactive)	20.4 µM (inactive)	19.6 µM (inactive)	–	12.4 µM (inactive)	18.1 µM (inactive)	16.7 µM (inactive)	–	19.1 µM (inactive)	21.3 µM (inactive)
O=C1CCN2c3ccccc3[C@H]3Cc4cccc(c4[C@@H]2C3)CCO1	41.9 µM (inactive)	28.4 µM (inactive)	27.4 µM (inactive)	40.4 µM (inactive)	33.5 µM (inactive)	32.4 µM (inactive)	41.5 µM (inactive)	47.4 µM (inactive)	23.6 µM (inactive)	22 µM (inactive)	29.4 µM (inactive)	36.7 µM (inactive)	28.8 µM (inactive)	16.3 µM (inactive)	36.6 µM (inactive)	31 µM (inactive)	–	57.8 µM (inactive)
COc1ccc(N[S+]([O-])c2ccc(-c3ccccc3)cc2)cc1 (centres undefined)	> 100 µM (inactive)	> 100 µM (inactive)	22.3 µM (inactive)	> 100 µM (inactive)	> 100 µM (inactive)	> 100 µM (inactive)	> 100 µM (inactive)	> 100 µM (inactive)	55 µM (inactive)	8.55 µM (inactive)	> 100 µM (inactive)	–	> 100 µM (inactive)	> 100 µM (inactive)	> 100 µM (inactive)	–	0.667 µM (active)	–
OC1COC2CC(Nc3ccccn3)OC12 (centres undefined)	> 100 µM (inactive)	> 100 µM (inactive)	> 100 µM (inactive)	> 100 µM (inactive)	> 100 µM (inactive)	> 100 µM (inactive)	–	> 100 µM (inactive)	56.9 µM (inactive)	> 100 µM (inactive)	> 100 µM (inactive)	> 100 µM (inactive)	> 100 µM (inactive)	> 100 µM (inactive)	> 100 µM (inactive)	–	> 100 µM (inactive)	> 100 µM (inactive)
O=C(O)C(Cc1ccc(O)cn1)NC(=O)C(F)(F)F (centres undefined)	> 100 µM (inactive)	> 100 µM (inactive)	–	> 100 µM (inactive)	> 100 µM (inactive)	> 100 µM (inactive)	> 100 µM (inactive)	> 100 µM (inactive)	> 100 µM (inactive)	> 100 µM (inactive)	> 100 µM (inactive)	–	> 100 µM (inactive)	> 100 µM (inactive)	> 100 µM (inactive)	–	> 100 µM (inactive)	> 100 µM (inactive)
CC1(C)[C@@H]2C[C@H]1C(Cc1ccccc1C[C@H]1c3cc(-c4ccccn4)ncc3[C@H]3C[C@@H]1C3(C)C)c1cc(-c3ccccn3)ncc12 (some centres undefined)	0.568 µM (active)	0.448 µM (active)	0.679 µM (active)	0.416 µM (active)	0.399 µM (active)	0.408 µM (active)	0.362 µM (active)	0.714 µM (active)	1.91 µM (inactive)	0.274 µM (active)	0.507 µM (active)	0.294 µM (active)	0.223 µM (active)	0.479 µM (active)	0.371 µM (active)	–	–	0.716 µM (active)
